Columns and labels:
patients = assay: Clinical trial: longest duration episode of AFib at each dose, per subject (Example 7); type: in vivo; settings: for longest duration episode of AFib / longest duration episode of AFib, Total: 2 Weeks; for longest duration episode of AFib, Total: Total of subjects
Source text: This example is a clinical trial evaluation of 6 patients treated with different doses of budiodarone each for a two-week period to determine the longest duration episode of AFib experienced at each dose. In this example, the patients' heart rhythms were continuously monitored over a twelve-week period with a pacemaker.

[1] = in vivo; cited from earlier work
[2] = Serum half-life of budiodarone; type: in vivo; settings: human
[3] = test system: patients with either paroxysmal or persistent AFib; assay: Clinical trial: episodes of AFib greater than 6 minutes (0.1 hour), pacemaker monitoring (Example 6); type: in vivo; settings: for Episodes of AFib > 0.1 hrs: Duration, percent of Off Drug (baseline) / Episodes of AFib > 0.1 hrs: Number, percent of Off Drug (baseline): 2 weeks (baseline 4 weeks); for Episodes of AFib > 0.1 hrs: Number / Episodes of AFib > 0.1 hrs: Duration: all tested patients, 2 weeks; for Episodes of AFib > 0.1 hrs: Duration: cumulative; for Episodes of AFib > 0.1 hrs: Fraction of hours: hours in AFib / hours monitored
Procedure: In this example, the patients' heart rhythm was continuously monitored over a twelve-week period with a pacemaker. The patients were treated with different doses (2 weeks each) of budiodarone. In addition, during this trial, the patients were under continuous monitoring and clinician supervision.
The “Number” indicates the number of AFib episodes greater than 6 minutes for all tested patients over the trial period (4 weeks for based line, 2 weeks experimental). The “Duration” in hours indicates the cumulative duration in hours over the trial period that the tested patients were measured in episodes of AFib greater than 6 minutes.
Table 8 provides a summary of the fraction of time and the number of hours per week that the patients were in episodes of AFib greater than 6 minutes in duration, on average. The percent time in AFib was reduced by 90% for doses of budiodarone at 600 mg bid and 800 mg bid.

[4] = test system: patients with either paroxysmal or persistent AFib; assay: Clinical trial: episodes of long duration AFib (>1 hr), pacemaker monitoring (Example 5); type: in vivo; settings: 2 week period; for Episodes of AFib > 1 hrs: Duration / Episodes of AFib > 1 hrs: Number: 6 patients
Procedure: (§1) This example is a clinical trial evaluation of budiodarone in treating 6 patients with either paroxysmal or persistent AFib who previously evidenced episodes of long duration AFib (greater than 1 hour). In this example, the patients' heart rhythms were continuously monitored over a twelve-week period with a pacemaker (surgically invasive procedure) and were treated with different doses (2 weeks each) of budiodarone. In addition, during this trial, the patients were under continuous monitoring and constant clinician supervision.
The purpose of this example is to establish whether budiodarone reduces long duration AFib (duration >1 hr) in a clinical study setting using a pacemaker to evaluate the heart rhythm.
As above, “Number” indicates a number of long duration AFib episodes during the 2 week period, and “Duration” indicates a number of hours during the 2 week period sent in the long duration AFib episodes

[5] = test system: patients with either paroxysmal or persistent AFib; assay: Clinical trial: episodes of longer duration AFib (>24 hrs), pacemaker monitoring (Example 3); type: in vivo; settings: 2-week period; for Episodes of AFib > 24 hrs: Duration / Episodes of AFib > 24 hrs: Number: 6 patients
Procedure: as §1, with “24 hrs).” for “1 hour).”
The purpose of this example is to establish whether budiodarone treatment can reduce longer duration AFib (AFib episodes lasting more than 24 hours) in a clinical study setting and using a pacemaker to evaluate heart rhythm.
“Number” indicates the number of longer duration episodes of AFib (i.e., having a duration of greater than 24 hours). “Duration” indicates the amount of time during the 2-week period spent in the longer duration indicated in hours and a percentage relative to the baseline measurement. As per the above results, 200 mg b.i.d. was sufficient to treat all patients in the study by eliminating the number of episodes of AFib lasting over 24 hours. In this case, dose escalation was not required to improve patient efficacy as the 200 mg bid doses of budiodarone were sufficient to eliminate these long duration episodes of AFib.

In the case of `CC[C@H](C)OC(=O)Cc1oc2ccccc2c1C(=O)c1cc(I)c(OCCN(CC)CC)c(I)c1` [budiodarone, (S)-sec-butyl2-(3-(4-(2-(diethylamino)ethoxy)-3,5-diiodobenzoyl)benzofuran-2-yl)acetate], the “dose required to eliminate all episodes of long duration AFib (>5 hrs)” value (patients; Subject 1) is reported as 800 mg bid, the “longest duration episode of AFib” value (patients; Subject 1, 200 mg bid) is reported as 5 h and the “longest duration episode of AFib” value (patients; Subject 1, 400 mg bid) is reported as 8 h. The “longest duration episode of AFib” value (patients; Subject 1, 600 mg bid) was 7 h, the “longest duration episode of AFib” value (patients; Subject 1, 800 mg bid) was 3 h and the “longest duration episode of AFib” value (patients; Subject 2, 200 mg bid) was 6 h. For the same compound, the “longest duration episode of AFib” value (patients; Subject 2, 400 mg bid) was 13 h, the “longest duration episode of AFib” value (patients; Subject 2, 600 mg bid) was 0 h and the “longest duration episode of AFib” value (patients; Subject 2, 800 mg bid) was 5 h. The “longest duration episode of AFib” value (patients; Subject 3, 200 mg bid) was 7 h, the “longest duration episode of AFib” value (patients; Subject 4, 200 mg bid) was 0 h and the “longest duration episode of AFib” value (patients; Subject 4, 400 mg bid) was 2 h. For the same compound, the “longest duration episode of AFib” value (patients; Subject 4, 600 mg bid) was 2 h, the “longest duration episode of AFib” value (patients; Subject 4, 800 mg bid) was 1 h and the “longest duration episode of AFib” value (patients; Subject 5, 200 mg bid) was 3 h. The “longest duration episode of AFib” value (patients; Subject 5, 400 mg bid) was 2 h, the “longest duration episode of AFib” value (patients; Subject 5, 600 mg bid) was 0.8 h and the “longest duration episode of AFib” value (patients; Subject 5, 800 mg bid) was 1.6 h. For the same compound, the “dose required to eliminate all episodes” value (patients; Subject 6) was 600 mg bid, the “longest duration episode of AFib” value (patients; Subject 6, 200 mg bid) was 6 h and the “longest duration episode of AFib” value (patients; Subject 6, 400 mg bid) was 10 h. For the same compound, the “longest duration episode of AFib” value (patients; Subject 6, 600 mg bid) was 0 h, the “longest duration episode of AFib” value (patients; Subject 6, 800 mg bid) was 3 h and the “dose sufficient to eliminate all episodes of long duration AFib (>5 hrs)” value (patients; Subjects 4 and 5) was 200 mg twice a day. For the same compound, the “longest duration episode of AFib, Total” value (patients; 200 mg bid) was 21 h, the “longest duration episode of AFib, Total” value (patients; 400 mg bid) was 33 h and the “longest duration episode of AFib, Total” value (patients; 600 mg bid) was 7.8 h. For the same compound, the “longest duration episode of AFib, Total” value (patients; 800 mg bid) was 13.6 h, the “increase in the QT interval” value [1] was “without a significant increase in the QT interval” and the half-life ([2]; after administration) was 6 to 7 h. For the same compound, the time to reach steady state ([2]; read-out: steady state (about 5x the serum half-life)) was 1800 to 2100 min, the “Episodes of AFib > 0.1 hrs: Duration in hrs/week (average per patient)” value (from here on “Episodes … in hrs/week (average per patient)”) ([3]; 200 mg bid) was 5.9 hrs/week and the “Episodes of AFib > 0.1 hrs: Fraction of hours (percent), percent time in AFib” value ([3]; 200 mg bid) was “(3.5%)”. For the same compound, the “Episodes of AFib > 0.1 hrs: Duration, percent of Off Drug (baseline)” value ([3]; 200 mg bid) was 11%, the “Episodes of AFib > 0.1 hrs: Number, percent of Off Drug (baseline)” value ([3]; 200 mg bid) was 52 (52%) and the “Episodes of AFib > 0.1 hrs: Number” value ([3]; 200 mg bid) was 52 (52%). The “Episodes of AFib > 0.1 hrs: Duration” value ([3]; 200 mg bid) was 71 h, the “Episodes of AFib > 0.1 hrs: Fraction of hours” value ([3]; 200 mg bid) was 71/2016 and the “drop in percent time in AFib” value ([3]; 200 mg twice a day) was 76.7%. The “Episodes … in hrs/week (average per patient)” value ([3]; 400 mg bid) was 5 hrs/week, the “Episodes of AFib > 0.1 hrs: Fraction of hours (percent), percent time in AFib” value ([3]; 400 mg bid) was “(3.0%)” and the “Episodes of AFib > 0.1 hrs: Duration, percent of Off Drug (baseline)” value ([3]; 400 mg bid) was 10%. For the same compound, the “Episodes of AFib > 0.1 hrs: Number, percent of Off Drug (baseline)” value ([3]; 400 mg bid) was 28 (28%), the “Episodes of AFib > 0.1 hrs: Number” value ([3]; 400 mg bid) was 28 (28%) and the “Episodes of AFib > 0.1 hrs: Duration” value ([3]; 400 mg bid) was 61 h. The “Episodes of AFib > 0.1 hrs: Fraction of hours” value ([3]; 400 mg bid) was 61/2016, the “Episodes … in hrs/week (average per patient)” value ([3]; 600 mg bid) was 2.5 hrs/week and the “Episodes of AFib > 0.1 hrs: Fraction of hours (percent), percent time in AFib” value ([3]; 600 mg bid) was “(1.5%)”. For the same compound, the “reduction of percent time in AFib” value ([3]; 600 mg bid and 800 mg bid (Table 8)) was 90%, the “reduction of the number of episodes of AFib longer than 6 minutes” value ([3]; 600 mg bid or 800 mg bid) was “more than 80%” and the “Episodes of AFib > 0.1 hrs: Duration, percent of Off Drug (baseline)” value ([3]; 600 mg bid) was 4.8%. The “Episodes of AFib > 0.1 hrs: Number, percent of Off Drug (baseline)” value ([3]; 600 mg bid) was 16 (16%), the “Episodes of AFib > 0.1 hrs: Number” value ([3]; 600 mg bid) was 16 (16%) and the “Episodes of AFib > 0.1 hrs: Duration” value ([3]; 600 mg bid) was 30 h. For the same compound, the “Episodes of AFib > 0.1 hrs: Fraction of hours” value ([3]; 600 mg bid) was 30/2016, the “drop in percent time in AFib” value ([3]; 600 mg twice a day) was 90% and the “Episodes … in hrs/week (average per patient)” value ([3]; 800 mg bid) was 1.3 hrs/week. The “Episodes of AFib > 0.1 hrs: Fraction of hours (percent), percent time in AFib” value ([3]; 800 mg bid) was “(0.8%)”, the “Episodes of AFib > 0.1 hrs: Duration, percent of Off Drug (baseline)” value ([3]; 800 mg bid) was 2.5% and the “Episodes of AFib > 0.1 hrs: Number, percent of Off Drug (baseline)” value ([3]; 800 mg bid) was 15 (15%). The “Episodes of AFib > 0.1 hrs: Number” value ([3]; 800 mg bid) was 15 (15%), the “Episodes of AFib > 0.1 hrs: Duration” value ([3]; 800 mg bid) was 16 h and the “Episodes of AFib > 0.1 hrs: Fraction of hours” value ([3]; 800 mg bid) was 16/2016. The “drop in percent time in AFib” value ([3]; 800 mg twice a day) was 94.8%, the “Episodes of AFib > 1 hrs: Duration, percent of Off Drug (baseline)” value ([4]; 200 mg bid) was “(10%)” and the “Episodes of AFib > 1 hrs: Duration” value ([4]; 200 mg bid) was 60 h. For the same compound, the “Episodes of AFib > 1 hrs: Number” value ([4]; 200 mg bid) was 22, the “Episodes of AFib > 1 hrs: Duration, percent of Off Drug (baseline)” value ([4]; 400 mg bid) was “(9.3%)” and the “Episodes of AFib > 1 hrs: Duration” value ([4]; 400 mg bid) was 56 h. The “Episodes of AFib > 1 hrs: Number” value ([4]; 400 mg bid) was 12, the “Episodes of AFib > 1 hrs: Duration, percent of Off Drug (baseline)” value ([4]; 600 mg bid) was “(4.3%)” and the “Episodes of AFib > 1 hrs: Duration” value ([4]; 600 mg bid) was 26 h. The “Episodes of AFib > 1 hrs: Number” value ([4]; 600 mg bid) was 6, the “Episodes of AFib > 1 hrs: Duration, percent of Off Drug (baseline)” value ([4]; 800 mg bid) was “(2.5%)” and the “Episodes of AFib > 1 hrs: Duration” value ([4]; 800 mg bid) was 15 h. For the same compound, the “Episodes of AFib > 1 hrs: Number” value ([4]; 800 mg bid) was 6, the “Episodes of AFib > 24 hrs: Duration, percentage relative to the baseline” value (from here on “Episodes … percentage relative to the baseline”) ([5]; 200 mg bid) was “(0%)” and the “Episodes of AFib > 24 hrs: Duration” value ([5]; 200 mg bid) was 0 h. For the same compound, the “Episodes of AFib > 24 hrs: Number” value ([5]; 200 mg bid) was 0, the “Episodes … percentage relative to the baseline” value ([5]; 400 mg bid) was “(0%)” and the “Episodes of AFib > 24 hrs: Duration” value ([5]; 400 mg bid) was 0 h. For the same compound, the “Episodes of AFib > 24 hrs: Number” value ([5]; 400 mg bid) was 0, the “Episodes … percentage relative to the baseline” value ([5]; 600 mg bid) was “(0%)” and the “Episodes of AFib > 24 hrs: Duration” value ([5]; 600 mg bid) was 0 h. The “Episodes of AFib > 24 hrs: Number” value ([5]; 600 mg bid) was 0, the “Episodes … percentage relative to the baseline” value ([5]; 800 mg bid) was “(0%)” and the “Episodes of AFib > 24 hrs: Duration” value ([5]; 800 mg bid) was 0 h. For the same compound, the “Episodes of AFib > 24 hrs: Number” value ([5]; 800 mg bid) was 0.

From patent US12115373B2, “Methods for reducing the risk of strokes by pharmacotherapy to reduce the number and duration of atrial fibrillations” (Xyra, LLC, priority 2022, dated 2024)
